US9777015B2, “Useful thiophene derivatives in the treatment of diabetes” (METABRAIN RESEARCH, priority 2012, dated 2017)
Where a name gives a salt, the structure may show the parent alone. Read-outs that look alike come from different tables or passages of the source.

Tested on: hepatocytes isolated from Wistar rat liver
Test: Test of inhibition of hepatic production of glucose (isolated hepatocytes, 3 h or 20 h incubation)
Type: cell-based
Conditions: for activity at 50 µM / activity at 100 µM: Rattus norvegicus, Hepatocyte, hepatic glucose production, rat hepatocytes; for activity at 50 µM: compound at 50 μM, read-out: HGP % of ctrl @ 50 μM; for activity at 100 µM: compound at 100 μM, read-out: HGP % of ctrl @ 100 μM; for inhibition of hepatic production of glucose: with two doses
Protocol: The hepatocytes are isolated from Wistar rat liver having fasted for 24 h after perfusion of collagenase in the portal vein. The freshly isolated hepatocytes are sown in 6-well plates coated with collagen and containing an adhesion medium (Williams Medium). After adhesion, the medium is replaced with RPMI 1640 medium without any glucose, containing hydrocortisone (7.10^−5M) for a duration from 16 to 18 h. The next day, the glucose hepatic production test is conducted in a Krebs medium for 3 h. The basal conditions are cells incubated with only Krebs, the stimulated conditions are the cells placed in Krebs+lactate+pyruvate, the produced conditions are the cells exposed to chemical compounds in a Krebs/lactate/pyruvate medium. In the case when the compounds are dissolved in DMSO, all the conditions of the tests are met in the presence of a final concentration of 0.1% DMSO. The positive control of the test is the mercaptopicolinate known for its inhibitory action on hepatic production of glucose via the phosphoenolpyruvate carboxykinase. For short term treatments, the compounds are incubated for 3 h. For long term treatments, the compounds are incubated for 20 h at the moment when the hepatocytes are cultivated in RPMI and then added during the hepatic production test for 3 h. At the end of the 3 hours of incubation, the supernatant is recovered for measurement of glucose with a colorimetric method using glucose oxidase. The cells are lysed with a 0.1% NaOH aqueous solution in order to measure the amount of protein with the Lowry method. The results are expressed in mmols of glucose per mg of protein.

SMILES	activity at 50 µM (3 h, 3 h incubation) [%]	activity at 100 µM (3 h, 3 h incubation) [%]	activity at 50 µM (20 h, 20 h incubation) [%]	activity at 100 µM (20 h, 20 h incubation) [%]	inhibition of hepatic production of glucose (3 h incubation)	inhibition of hepatic production of glucose (20 h incubation)
COc1ccc(-c2sc(C(=O)c3ccc(F)cc3F)cc2CC(=O)O)cc1 [compound 65, 2-(5-(2,4-difluorobenzoyl)-2-(4-methoxyphenyl)thiophen-3-yl)acetic acid]	93	66	–	–	–	–
N=C(N)NC(=O)Cc1cc(C(=O)c2ccco2)sc1-c1ccc(Cl)cc1 [compound 186, N-carbamimidoyl-2-[2-(4-chlorophenyl)-5-(furan-2-carbonyl)-3-thienyl]acetamide hydrochloride]	69	60	–	–	–	–
O=C(O)Cc1cc(C(=O)C2CCCCC2)sc1-c1ccc(Cl)cc1 [compound 61, 2-(2-(4-chlorophenyl)-5-(cyclohexanecarbonyl)thiophen-3-yl)acetic acid]	78	66	–	–	–	–
O=C(O)Cc1cc(C(=O)c2ccccn2)sc1-c1ccc(Cl)cc1 [compound 149, 2-(2-(4-chlorophenyl)-5-picolinoylthiophen-3-yl)acetic acid]	–	–	47	13	–	–
O=C(O)Cc1cc(C(=O)c2ccco2)sc1-c1ccc(Cl)cc1F [compound 144, 2-(2-(4-chloro-2-fluorophenyl)-5-(furan-2-carbonyl)thiophen-3-yl)acetic acid]	74	52	–	–	–	–
COc1ccc(C(=O)c2cc(CC(=O)O)c(-c3ccc(OC)cc3)s2)cc1 [compound 45, 2-(5-(4-methoxybenzoyl)-2-(4-methoxyphenyl)thiophen-3-yl)acetic acid]	82	73	–	–	–	–
COc1ccc(NC(=O)c2cc(CC(=O)O)c(-c3ccc(Cl)cc3)s2)cc1 [compound 121, 2-(2-(4-chlorophenyl)-5-((4-methoxyphenyl)carbamoyl)thiophen-3-yl)acetic acid]	80	66	–	–	–	–
O=C(c1ccco1)c1cc(Cc2noc(=O)[nH]2)c(-c2ccc(Cl)cc2)s1 [compound 153, 3-((2-(4-chlorophenyl)-5-(furan-2-carbonyl)thiophen-3-yl)-methyl)-1,2,4-oxadiazol-5(2H)-one]	95	38	–	–	–	–
COc1cccc(NC(=O)c2cc(CC(=O)OC(C)C)c(-c3ccc(Cl)cc3)s2)c1 [compound 115, isopropyl 2-(2-(4-chlorophenyl)-5-((3-methoxyphenyl)-carbamoyl)thiophen-3-yl)acetate]	66	75	–	–	–	–
COc1ccc(-c2sc(C(=O)C3CCCCC3)cc2CC(=O)O)cc1 [compound 46, 2-(5-(cyclohexanecarbonyl)-2-(4-methoxyphenyl)thiophen-3-yl)acetic acid]	74	55	–	–	–	–
COC(=O)Cc1cc(C(=O)c2cccc(Cl)c2)sc1-c1ccccc1 [compound 2, methyl 2-(5-(3-chlorobenzoyl)-2-phenylthiophen-3-yl)acetate]	83	62	–	–	–	–
COc1cccc(C(=O)c2cc(CC(=O)O)c(-c3ccccc3)s2)c1 [compound 50, 2-(5-(3-methoxybenzoyl)-2-phenylthiophen-3-yl)acetic acid]	97	75	–	–	–	–
CCOC(=O)Cc1cc(C(=O)CCc2ccccc2)sc1-c1ccc(OC)cc1 [compound 38, ethyl 2-(2-(4-methoxyphenyl)-5-(3-phenylpropanoyl)thiophen-3-yl)acetate]	74	70	–	–	–	–
COc1ccc(C(=O)c2cc(C(C)C(=O)O)c(-c3ccc(Cl)cc3)s2)cc1 (stereo not shown) [compound 127, 2-(2-(4-chlorophenyl)-5-(4-methoxybenzoyl)thiophen-3-yl)propanoic acid]	54	23	–	–	strongest inhibitions	–
CON=C(c1ccc(OC)cc1)c1cc(CC(=O)O)c(-c2ccc(Cl)cc2)s1 [compound 110, 2-(2-(4-chlorophenyl)-5-((methoxyimino)(4-methoxyphenyl)methyl)thiophen-3-yl)acetic acid]	72	33	–	–	–	–
COc1ccc(C(=NO)c2cc(CC(=O)O)c(-c3ccc(Cl)cc3)s2)cc1 [compound 109, 2-(2-(4-chlorophenyl)-5-((hydroxyimino)(4-methoxyphenyl)methyl)thiophen-3-yl)acetic acid]	69	27	–	–	–	–

SMILES	activity at 50 µM (3 h, 3 h incubation) [%]	activity at 100 µM (3 h, 3 h incubation) [%]	activity at 50 µM (20 h, 20 h incubation) [%]	activity at 100 µM (20 h, 20 h incubation) [%]	inhibition of hepatic production of glucose (3 h incubation)	inhibition of hepatic production of glucose (20 h incubation)
O=C(O)Cc1cc(C(=O)CCc2ccccc2)sc1-c1ccc(Cl)cc1 [compound 63, 2-(2-(4-chlorophenyl)-5-(3-phenylpropanoyl)thiophen-3-yl) acetic acid]	56	28	–	–	strongest inhibitions	–
COc1ccc(C(=O)c2cc(CC(=O)O)c(-c3ccc(Cl)c(Cl)c3)s2)cc1 [compound 81, 2-(2-(3,4-dichlorophenyl)-5-(4-methoxybenzoyl)thiophen-3-yl) acetic acid]	106	54	–	–	–	–
COC(=O)Cc1cc(C(=O)c2cccc(OC)c2)sc1-c1ccccc1 [compound 4, methyl 2-(5-(3-methoxybenzoyl)-2-phenylthiophen-3-yl)acetate]	77	75	–	–	–	–
CCONC(=O)Cc1cc(C(=O)c2ccco2)sc1-c1ccc(Cl)cc1 [compound 98, 2-(2-(4-chlorophenyl)-5-(furan-2-carbonyl)thiophen-3-yl)-N-ethoxyacetamide]	88	74	–	–	–	–
COc1ccc(C(=O)c2cc(CC(=O)O)c(-c3ccccc3)s2)cc1 [compound 51, 2-(5-(4-methoxybenzoyl)-2-phenylthiophen-3-yl)acetic acid]	90	54	–	–	–	–
CCON=C(c1ccc(Cl)c(Cl)c1)c1cc(CC(=O)O)c(-c2ccc(Cl)cc2)s1 [compound 167, 2-[2-(4-chlorophenyl)-5-[C-(3,4-dichlorophenyl)-N-ethoxy-carbonimidoyl]-3-thienyl]acetic acid]	20	23	–	–	strongest inhibitions	–
COC(=O)Cc1cc(C(=O)C2CCCCC2)sc1-c1ccccc1 [compound 6, methyl 2-(5-(cyclohexanecarbonyl)-2-phenylthiophen-3-yl)acetate]	72	55	–	–	–	–
O=C(O)Cc1cc(C(=O)c2cccc(Cl)c2)sc1-c1ccc(Cl)cc1 [compound 58, 2-(5-(3-chlorobenzoyl)-2-(4-chlorophenyl)thiophen-3-yl)acetic acid]	51	25	–	–	strongest inhibitions	–
COCC(C(=O)O)c1cc(C(=O)c2ccc(OC)cc2)sc1-c1ccc(Cl)cc1 (stereo not shown) [compound 128, 2-(2-(4-chlorophenyl)-5-(4-methoxybenzoyl)thiophen-3-yl)-3-methoxypropanoic acid]	–	–	41	16	–	strongest inhibitions
CCOC(=O)Cc1cc(C(=O)CCc2ccccc2)sc1-c1ccc(Cl)cc1 [compound 17, ethyl 2-(2-(4-chlorophenyl)-5-(3-phenylpropanoyl)thiophen-3-yl)acetate]	76	73	–	–	–	–
COc1ccc(C(=O)c2cc(CC(=O)NC(=N)N)c(-c3ccc(Cl)cc3)s2)cc1.Cl [compound 185, N-carbamimidoyl-2-(2-(4-chlorophenyl)-5-(4-methoxybenzoyl)thiophen-3-yl) acetamide hydrochloride]	54	28	–	–	strongest inhibitions	–
COC(=O)Cc1cc(C(=O)c2ccccc2)sc1-c1ccccc1 [compound 7, methyl 2-(5-benzoyl-2-phenyl-thiophen-3-yl)acetate]	84	70	–	–	–	–
COc1ccc(C(=O)c2cc(CC(=O)OC(C)C)c(-c3ccc(Cl)cc3)s2)cc1 [compound 43, isopropyl 2-(2-(4-chlorophenyl)-5-(4-methoxybenzoyl)thiophen-3-yl)acetate]	82	73	–	–	–	–
COc1ccc(C(=O)c2cc(CC(N)=O)c(-c3ccc(Cl)cc3)s2)cc1 [compound 86, 2-(2-(4-chlorophenyl)-5-(4-methoxybenzoyl)thiophen-3-yl)acetamide]	77	72	–	–	–	–
COc1ccc(C(=O)c2cc(CC(=O)O)c(-c3ccc(Cl)cc3)s2)cc1 [compound 60, 2-(2-(4-chlorophenyl)-5-(4-methoxybenzoyl)thiophen-3-yl) acetic acid]	74	53	–	–	–	–
COc1cccc(C(=O)c2cc(CC(=O)O)c(-c3ccc(Cl)cc3)s2)c1 [compound 59, 2-(2-(4-chlorophenyl)-5-(3-methoxybenzoyl)thiophen-3-yl) acetic acid]	67	35	–	–	–	–
